From ChEMBL document CHEMBL3046672, “Synthesis and bioevaluation of Schiff and Mannich bases of isatin derivatives with 4-amino-5-benzyl-2,4-dihydro-3H-1,2,4-triazole-3-thione” (2012) come the findings set out here.

Molecules are shown by their SMILES.

Assay type in all cases: functional
Holding throughout (settings): read-out: DIZ

In assay [1] the test system is Candida albicans. Description: Antifungal activity against Candida albicans at 100 ug/ml.
Assay [2] has as its system Staphylococcus aureus. The experiment in a line: Antibacterial activity against Staphylococcus aureus at 100 ug/ml.
The test system of assay [3] is Pseudomonas aeruginosa. Description: Antibacterial activity against Pseudomonas aeruginosa at 50 ug/ml.
In assay [4] the test system is Aspergillus niger. Description: Antifungal activity against Aspergillus niger at 200 ug/ml.
Assay [5] deals with Aspergillus niger. The experiment in a line: Antifungal activity against Aspergillus niger at 100 ug/ml.
In assay [6] the test system is Escherichia coli. Description: Antibacterial activity against Escherichia coli at 200 ug/ml.
For assay [7], the system named is Bacillus subtilis. Description: Antibacterial activity against Bacillus subtilis at 100 ug/ml.
The subject of assay [8] is Staphylococcus aureus. Description: Antibacterial activity against Staphylococcus aureus at 200 ug/ml.
Assay [9] has as its system Staphylococcus aureus. Description: Antibacterial activity against Staphylococcus aureus at 50 ug/ml.
Assay [10] has as its system Escherichia coli. Description: Antibacterial activity against Escherichia coli at 100 ug/ml.
In assay [11] the test system is Pseudomonas aeruginosa. Description: Antibacterial activity against Pseudomonas aeruginosa at 200 ug/ml.
In assay [12] the test system is Pseudomonas aeruginosa. The experiment in a line: Antibacterial activity against Pseudomonas aeruginosa at 100 ug/ml.
Assay [13] has as its system Bacillus subtilis. Description: Antibacterial activity against Bacillus subtilis at 200 ug/ml.
Assay [14] deals with Bacillus subtilis. Description: Antibacterial activity against Bacillus subtilis at 50 ug/ml.
In assay [15] the test system is Escherichia coli. Description: Antibacterial activity against Escherichia coli at 50 ug/ml.
Assay [16] relates to Candida albicans. The experiment in a line: Antifungal activity against Candida albicans at 200 ug/ml.

Consider `CCN(CC)CN1C(=O)/C(=N\n2c(Cc3ccccc3)n[nH]c2=S)c2cc(Cl)ccc21`, for which the zone of inhibition at 100 µg/mL was determined as 9 mm in assay [1]; 12 mm in assay [2]; 9 mm in assay [5]; 14 mm in assay [7]; 17 mm in [10]; 16 mm in [12]. For the same compound, the zone of inhibition at 50 µg/mL was 9 mm in assay [3], 9 mm in assay [9], 9 mm in [14] and 11 mm in [15]. In addition, the zone of inhibition at 200 µg/mL in assay [4] is 12 mm; in assay [6] it was 27 mm; in assay [8], 21 mm; in assay [11], 22 mm; in [13], 20 mm; in assay [16], 15 mm.

`O=C1/C(=N\n2c(Cc3ccccc3)n[nH]c2=S)c2cc(Cl)ccc2N1CN1CCOCC1`: the zone of inhibition at 100 µg/mL in [1] came out at 10 mm; in [2] it was 14 mm; in [5] it was 9 mm; in assay [7] it was 13 mm; in [10] it was 16 mm; in assay [12], 15 mm. Besides, the zone of inhibition at 50 µg/mL in [3] was found to be 9 mm; in assay [9], 9 mm; in assay [14] it was 9 mm; in assay [15] it was 11 mm. Besides, the zone of inhibition at 200 µg/mL in [4] came to 17 mm; in [6], 25 mm; in [8] it was 20 mm; in assay [11], 25 mm; in assay [13], 22 mm; in assay [16], 17 mm.

As for `CCN(CC)CN1C(=O)/C(=N\n2c(Cc3ccccc3)n[nH]c2=S)c2cc(Br)ccc21`, the zone of inhibition at 100 µg/mL in assay [1] was found to be 10 mm; in assay [2], 14 mm; in assay [5], 9 mm; in assay [7], 13 mm; in [10] it was 16 mm; in assay [12] it was 14 mm. In addition, the zone of inhibition at 50 µg/mL was 9 mm in assay [3], 9 mm in assay [9], 9 mm in assay [14] and 10 mm in [15]. Besides, the zone of inhibition at 200 µg/mL in [4] was determined as 13 mm; in assay [6], 26 mm; in assay [8], 20 mm; in assay [11], 23 mm; in [13] it was 20 mm; in assay [16] it was 16 mm.

`O=C1Nc2ccc(Br)cc2/C1=N/n1c(Cc2ccccc2)n[nH]c1=S`: the zone of inhibition at 100 µg/mL in assay [1] was 11 mm; in assay [2], 12 mm; in assay [5], 10 mm; in assay [7], 15 mm; in assay [10] it was 17 mm; in [12], 15 mm. For the same compound, the zone of inhibition at 50 µg/mL in [3] came to 10 mm; in assay [9], 9 mm; in [14], 9 mm; in assay [15] it was 11 mm. Moreover, the zone of inhibition at 200 µg/mL in assay [4] amounted to 14 mm; in assay [6] it was 27 mm; in [8], 20 mm; in [11], 25 mm; in [13] it was 20 mm; in [16] it was 17 mm.

For `OC(Cn1cncn1)(Cn1cncn1)c1ccc(F)cc1F` [FLUCONAZOLE], the zone of inhibition at 200 µg/mL came out at 18 mm in [4] and 20 mm in [16].

Turning to `O=C1Nc2ccc(Cl)cc2/C1=N/n1c(Cc2ccccc2)n[nH]c1=S`, the zone of inhibition at 100 µg/mL in assay [1] came to 9 mm; in assay [2], 11 mm; in [5] it was 9 mm; in assay [7], 14 mm; in assay [10], 18 mm; in assay [12] it was 13 mm. In addition, the zone of inhibition at 50 µg/mL in assay [3] was found to be 9 mm; in [14], 9 mm; in assay [15], 11 mm. The zone of inhibition at 200 µg/mL worked out at 12 mm in [4]; 27 mm in [6]; 23 mm in assay [8]; 25 mm in assay [11]; 20 mm in [13]; 16 mm in assay [16].

Regarding `CCN(CC)CN1C(=O)/C(=N\n2c(Cc3ccccc3)n[nH]c2=S)c2ccccc21`, the zone of inhibition at 100 µg/mL stood at 10 mm in [1]; 16 mm in assay [2]; 9 mm in assay [5]; 13 mm in assay [7]; 15 mm in assay [10]; 13 mm in assay [12]. In addition, the zone of inhibition at 50 µg/mL worked out at 9 mm in [3], 11 mm in [9], 9 mm in [14] and 9 mm in assay [15]. Besides, the zone of inhibition at 200 µg/mL worked out at 13 mm in assay [4]; 22 mm in [6]; 23 mm in assay [8]; 20 mm in [11]; 20 mm in assay [13]; 17 mm in [16].

For the compound `O=C(O)c1cn(C2CC2)c2cc(N3CCNCC3)c(F)cc2c1=O` [CIPROFLOXACIN], the zone of inhibition at 200 µg/mL in assay [6] was determined as 30 mm; in assay [8] it was 26 mm; in assay [11], 28 mm; in [13], 25 mm.

`O=C1/C(=N\n2c(Cc3ccccc3)n[nH]c2=S)c2cc(Br)ccc2N1CN1CCCCC1`: the zone of inhibition at 100 µg/mL in assay [1] came to 10 mm; in assay [2], 14 mm; in assay [5] it was 9 mm; in assay [7], 15 mm; in [10], 16 mm; in assay [12], 15 mm. For the same compound, the zone of inhibition at 50 µg/mL in [3] came out at 10 mm; in [9] it was 9 mm; in assay [14] it was 10 mm; in [15], 10 mm. Besides, the zone of inhibition at 200 µg/mL in [4] was found to be 15 mm; in assay [6] it was 25 mm; in [8], 21 mm; in assay [11], 22 mm; in [13], 20 mm; in [16] it was 16 mm.

With `O=C1/C(=N\n2c(Cc3ccccc3)n[nH]c2=S)c2ccccc2N1CN1CCCCC1`, the zone of inhibition at 100 µg/mL in [1] was determined as 10 mm; in assay [2], 14 mm; in [5] it was 9 mm; in assay [7], 12 mm; in assay [10] it was 18 mm; in assay [12], 16 mm. The zone of inhibition at 50 µg/mL amounted to 10 mm in assay [3], 9 mm in [9], 9 mm in [14] and 11 mm in [15]. Besides, the zone of inhibition at 200 µg/mL is 13 mm in assay [4]; 23 mm in assay [6]; 20 mm in assay [8]; 20 mm in assay [11]; 20 mm in assay [13]; 16 mm in assay [16].

With `O=C1/C(=N\n2c(Cc3ccccc3)n[nH]c2=S)c2ccccc2N1CN1CCOCC1`, the zone of inhibition at 100 µg/mL in assay [1] amounted to 10 mm; in assay [2], 15 mm; in [5] it was 9 mm; in assay [7], 13 mm; in [10] it was 15 mm; in assay [12] it was 12 mm. Further, the zone of inhibition at 50 µg/mL in [3] stood at 9 mm; in assay [9] it was 10 mm; in assay [14], 9 mm; in assay [15], 9 mm. The zone of inhibition at 200 µg/mL in assay [4] was found to be 12 mm; in assay [6], 23 mm; in assay [8] it was 19 mm; in assay [11], 22 mm; in assay [13] it was 20 mm; in [16], 15 mm.

Consider `O=C1/C(=N\n2c(Cc3ccccc3)n[nH]c2=S)c2cc(Br)ccc2N1CN1CCOCC1`, for which the zone of inhibition at 100 µg/mL was determined as 10 mm in [1]; 13 mm in [2]; 9 mm in assay [5]; 12 mm in assay [7]; 16 mm in assay [10]; 15 mm in [12]. In addition, the zone of inhibition at 50 µg/mL in assay [3] was 10 mm; in assay [9] it was 9 mm; in assay [14] it was 9 mm; in assay [15], 9 mm. In addition, the zone of inhibition at 200 µg/mL in [4] is 12 mm; in assay [6], 24 mm; in [8], 20 mm; in assay [11], 24 mm; in assay [13], 21 mm; in [16], 15 mm.
